The record followed here is patent US20110009343A1, “MODULATORS OF AMYLOID AGGREGATION” (Praecis Pharmaceuticals, Inc., priority 1995, published 2011).

One test addresses T1, Aβ1-40 (Homo sapiens, UniProt P05067).
T1 construct: (β-AP1-40) was obtained commercially from Bachem (Torrance, Calif.); purchased Bachem (Torrance, Calif.)
As to the kind of experiment: Nucleation assay (turbidity, A405 nm).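 As to all read-outs here: synthetic Aβ monomer polymerization followed by turbidity in 96-well plates with continuous shaking, read every 15 minutes over 5 hours, compared against wells lacking test compound.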 The class given is biochemical. The conditions noted are these: for ΔLag (ratio of lag time with test compound to lag time of control) / inhibition at 100 mol %: Table V; for ΔLag (ratio of lag time with test compound to lag time of control): 100 mole % inhibitor relative to Aβ1-40; for inhibition at 100 mol %: 100 mole % inhibitor, read-out: % Inucl'n (percent reduction in maximum observed turbidity).

In a further test the test system is cultured neuronal cells. As to the kind of experiment: Neurotoxicity of Aβ1-40 preparations with or without modulator (MTT), cell line not specified. The conditions noted are these: for delay of the appearance of neurotoxicity relative to control: compared with delay of polymerization in nucleation assay. The class given is cell-based.
For test [1], the target named is T2, Aβ(1-40) peptide (Homo sapiens, UniProt P05067).
T2 construct: (β-AP1-40) was obtained commercially from Bachem (Torrance, Calif.); purchased Bachem (Torrance, Calif.)
T2 sequence (P05067 672-711): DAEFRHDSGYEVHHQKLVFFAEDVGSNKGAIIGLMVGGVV
The experiment in a line: Shaken plate aggregation assay (absorbance 405 nm). To be noted: % conc relative to Aβ(1-40) as printed in cell. In kind it is biochemical.
Protocol: HFIP solubilized peptide was sonicated in a waterbath sonicator for 5 mM at highest setting, then evaporated to dryness under a stream of argon. The peptide film was resuspended in anhydrous dimethylsulfoxide (DMSO) at a concentration of 6.9 mg/ml, sonicated for 5 mM as before, then filtered through a 0.2 micron nylon syringe filter (VWR cat. No. 28196-050).
Candidates were assayed in triplicate. […] Into an ultra low binding 96 well plate (Corning Costar cat. No. 2500, Cambridge Mass.) 100 rtl PTL buffer (150 mM NaCl, 10 mM NaH2PO4; pH 7.4) was aliquotted per well. For each candidate, 10 μl of peptide mixture in DMSO was aliquotted into each of three wells containing buffer. The covered plate was vigorously vortexed on a plate shaker at high speed for 30 seconds. An additional 100 μl of PTL buffer was added to each well and again the plate was vortexed vigorously for 30 sec. Absorbance at 405 nm was immediately read in a plate reader for a baseline reading. The plate was returned to the plate shaker and vortexed at moderate speed for 5 hours at room temperature, with absorbance readings taken at 15-20 mM intervals. Increased absorbance indicated aggregation.

Test [2] addresses T2, Aβ(1-40) peptide. The experiment in a line: Seeded static assay (SSA), Thioflavin-T fluorescence. In kind it is biochemical. To be noted: inhibitor tested at 100 μM and 10 μM.
Protocol: The peptide was dissolved in 1/25 volume of dimethysulfoxide (DMSO), followed by water to 1/2 volume and 1/2 volume 2×PBS (10×PBS: NaCl 137 mM, KCl 2.7 mM Na2HPO4.7H2O 4.3 mM, KH2PO4 1.4 mM pH 7.2) to a final concentration of 200 μM.
To prepare a stock seed, 1 ml of the above Aβ monomer preparation, was incubated for 8 days at 37° C. and sheared sequentially through an 18, 23, 26 and 30 gauge needle 25, 25, 50, and 100 times respectively. 2 μl samples of the sheared material was taken for fluorescence measurements after every 50 passes through the 30 gauge needle until the fluorescence units (FU) had plateaued (approx. 100-150×).
To prepare a candidate inhibitor, the required amount of candidate inhibitor was weighed out and the stock dissolved in 1×PBS to a final concentration of 1 mM (10× stock). If insoluble, it was dissolved in 1/10 volume of DMSO and diluted in 1×PBS to 1 mM. […]
For the aggregation assay, each sample was set up in triplicate [50 μl of 200 μM monomer, 125 FU sheared seed (variable quantity dependent on the batch of seed, routinely 3-6 μl), 10 μl of 10× inhibitor solution, final volume made up to 100 μl with 1×PBS]. […] The assay was incubated at 37° C. for 6 h, taking 2 μl samples hourly for fluorescence measurements. To measure fluorescence, a 2 μl sample of Aβ was added to 400 μl of Thioflavin-T solution (50 mM Potassium Phosphate 10 mM Thioflavin-T pH 7.5).
The target in another test is T3, natural β-AP (β-AP1-40) (Homo sapiens, UniProt P05067).
T3 construct: (β-AP1-40) was obtained commercially from Bachem (Torrance, Calif.); purchased Bachem (Torrance, Calif.)
T3 sequence (P05067 672-711): as above
The experiment in a line: Optical density (turbidity, A400 nm) aggregation assay. The class given is biochemical.

The target of a further test is T4, β-AP1-40 (Homo sapiens, UniProt P05067).
T4 construct: (β-AP1-40) was obtained commercially from Bachem (Torrance, Calif.); purchased Bachem (Torrance, Calif.)
T4 sequence (P05067 672-711): as above
The experiment in a line: Static aggregation assay (SDS-PAGE). The class given is biochemical. Here is the method: In a third assay, β-AP aggregation was measured by visualization of the peptide aggregates using SDS-polyacrylamide gel electrophoresis (SDS-PAGE). In this assay, β-AP solutions were allowed to aggregate over a period of time and then aliquots of the reaction were run on a standard SDS-PAGE gel. Typical solution conditions were 200 μM of β-AP1-40 in PBS at 37° C. for 8 days or 200 μM β-AP1-40 in 0.1 M sodium acetate at 37° C. for 3 days. The peptide aggregates were visualized by Coomassie blue staining of the gel or, for β-AP solutions that included a biotinylated β-AP modulator, by western blotting of a filter prepared from the gel with a streptavidin-peroxidase probe, followed by a standard peroxidase assay. The β-AP aggregates are identifiable as high molecular weight, low mobility bands on the gel, which are readily distinguishable from the low molecular weight, high mobility β-AP monomer or dimer bands.

Ends that are not written are not given here. Peptide text beside a SMILES is read from it. * marks the point of attachment. Cholyl = C[C@H](CCC(=O)*)[C@H]1CC[C@H]2[C@@H]3[C@H](O)C[C@@H]4C[C@H](O)CC[C@]4(C)[C@H]3C[C@H](O)[C@]12C

T1 sequence (P05067 672-711): as above
Protocol for cultured neuronal cells: The neurotoxicity of natural β-amyloid peptide aggregates, in either the presence or absence of a β-amyloid modulator, is tested in a cell-based assay using either a rat or human neuronally-derived cell line (PC-12 cells or NT-2 cells, respectively) and the viability indicator 3,(4,4-dimethylthiazol-2-yl)2,5-diphenyl-tetrazolium bromide (MTT). […] MTT (commercially available from Sigma Chemical Co.) is a chromogenic substrate that is converted from yellow to blue in viable cells, which can be detected spectrophotometrically.
To test the neurotoxicity of natural β-amyloid peptides, stock solutions of fresh Aβ monomers and aged Aβ aggregates were first prepared. […] Peptide prepared in this way and tested immediately on cells is referred to as “fresh” Aβ monomer. To prepare “aged” Aβ aggregates, peptide solution was placed in a 1.5 ml Eppendorf tube and incubated at 37° C. for eight days to allow fibrils to form. Such “aged” Aβ peptide can be tested directly on cells or frozen at −80° C. The neurotoxicity of fresh monomers and aged aggregates were tested using PC12 and NT2 cells. PC 12 cells were routinely cultured in Dulbeco's modified Eagle's medium (DMEM) containing 10% horse serum, 5% fetal calf serum, 4 mM glutamine, and 1% gentamycin. NT2 cells were routinely cultured in OPTI-MEM medium (GIBCO BRL CAT. #31985) supplemented with 10% fetal calf serum, 2 mM glutamine and 1% gentamycin. Cells were plated at 10-15,000 cells per well in 90 μl of fresh medium in a 96-well tissue culture plate 3-4 hours prior to treatment. The fresh or aged Aβ peptide solutions (10 μL) were then diluted 1:10 directly into tissue culture medium so that the final concentration was in the range of 1-10 μM peptide. Cells are incubated in the presence of peptide without a change in media for 48 hours at 37° C. For the final three hours of exposure of the cells to the β-AP preparation, MTT was added to the media to a final concentration of 1 mg/ml and incubation was continued at 37° C. Following the two hour incubation with MTT, the media was removed and the cells were lysed in 100 μL isopropanol/0.4N HCl with agitation. An equal volume of PBS was added to each well and the plates were agitated for an additional 10 minutes. Absorbance of each well at 570 nm was measured using a microtiter plate reader to quantitate viable cells.
Protocol for natural β-AP (β-AP1-40): In one assay, β-AP aggregation was measured by determining the increase in turbidity of a solution of natural β-AP over time in the absence or presence of various concentrations of the modulator. Turbidity of the solution was quantitated by determining the optical density at 400 nm (A400 nm) of the solution over time.
The aggregation of natural β-AP in the absence of modulator was determined as follows. β-AP1-40 was dissolved in hexafluoro isopropanol (HFIP; Aldrich Chemical Co., Inc.) at 2 mg/ml. Aliquots of the HFIP solution (87 μl) were transferred to individual 10 mm×75 mm test tubes. A stream of argon gas was passed through each tube to evaporate the HFIP. To the resulting thin film of peptide, dimethylsulfoxide (DMSO; Aldrich Chemical Co., Inc.) (25 μl) was added to dissolve the peptide. A 2 mm×7 mm teflon-coated magnetic stir bar was added to each tube. Buffer (475 μL of 100 mM NaCl, 10 mM sodium phosphate, pH 7.4) was added to the DMSO solution with stiffing. The resulting mixture was stirred continuously and the optical density was monitored at 400 nm to observe the formation of insoluble peptide aggregates.
Alternatively, β-AP1-40 was dissolved in DMSO as described above at 1.6 mM (6.9 mg/ml) and aliquots (25 μl) were added to stirred buffer (475 μl), followed by monitoring of absorbance at 400 nm […]

On to `CC(C)C[C@H](NC(=O)[C@H](CCCCN)NC(=O)[C@H](CCC(N)=O)NC(=O)[C@H](Cc1c[nH]cn1)NC(=O)[C@H](Cc1c[nH]cn1)NC(=O)[C@@H](NC(=O)[C@H](CCC(=O)O)NC(=O)[C@H](Cc1ccc(O)cc1)NC(=O)CNC(=O)[C@H](CO)NC(=O)[C@H](CC(=O)O)NC(=O)[C@H](Cc1c[nH]cn1)NC(=O)CC[C@@H](C)[C@H]1CC[C@H]2[C@@H]3[C@H](O)C[C@@H]4C[C@H](O)CC[C@]4(C)[C@H]3C[C@H](O)[C@]12C)C(C)C)C(=O)N[C@H](C(=O)N[C@@H](Cc1ccccc1)C(=O)N[C@@H](Cc1ccccc1)C(=O)O)C(C)C` [PPI-264, cholyl-Aβ6-20] (Cholyl-HDSGYEVHHQKLVFF-OH), for which the “Fold Increase in Lag Time” value on Aβ1-40 (Table II, 100 mole % vs 50 μM Aβ1-40) is given as above 4.5 fold; at Aβ1-40 (Table III, 10 mole %), 2 fold; on Aβ1-40 (Table III, 100 mole %), above 4.5 fold; on Aβ1-40 (Table IV, 10 mole %), 2.0 fold. Further, the “aggregation of Aβ1-40 (turbidity)” value at Aβ1-40 (equimolar: Aβ1-40 and modulator both 64 μM, FIG. 4 panel A) is recorded as “effective at inhibiting aggregation of Aβ140”. Moreover, the “neurotoxicity of Aβ1-40 solution preincubated with modulator” value in the test with cultured neuronal cells (modulator preincubated with Aβ1-40 monomers, applied to cells 48 hours, MTT) is reported as “inhibits the neurotoxicity of the Aβ1-40 solution”.
Regarding `CC(C)C[C@H](NC(=O)[C@H](CCCCN)NC(=O)CC[C@@H](C)[C@H]1CC[C@H]2[C@@H]3[C@H](O)C[C@@H]4C[C@H](O)CC[C@]4(C)[C@H]3C[C@H](O)[C@]12C)C(=O)N[C@H](C(=O)N[C@@H](Cc1ccccc1)C(=O)N[C@@H](Cc1ccccc1)C(N)=O)C(C)C` [PPI-319, cholyl-Aβ16-20-amide], the “Fold Increase in Lag Time” value at Aβ1-40 (Table IV, 10 mole %) amounted to 2.7 fold; on Aβ1-40 (Table IV, 33 mole %), 5.6 fold. On Aβ1-40, the “ΔLag (ratio of lag time with test compound to lag time of control)” value was determined as 5.4. Moreover, the inhibition at 100 mol % at Aβ1-40 came out at 70%. Moreover, in the test on cultured neuronal cells, the “delay of the appearance of neurotoxicity relative to control” value is “coincided with the delay in the time at which polymerization of Aβ began”.
Consider `CC(C)C[C@H](NC(=O)[C@H](CCCCN)NC(=O)[C@H](CCC(N)=O)NC(=O)CC[C@@H](C)[C@H]1CC[C@H]2[C@@H]3[C@H](O)C[C@@H]4C[C@H](O)CC[C@]4(C)[C@H]3C[C@H](O)[C@]12C)C(=O)N[C@H](C(=O)N[C@@H](Cc1ccccc1)C(=O)N[C@@H](Cc1ccccc1)C(=O)O)C(C)C` [PPI-349, cholyl-Aβ15-20], for which the “Fold Increase in Lag Time” value on Aβ1-40 (Table III, 33 mole %) is 2.3 fold; on Aβ1-40 (Table IV, 10 mole %), 2.1 fold; at Aβ1-40 (Table IV, 33 mole %) it was 2.6 fold; at Aβ1-40 (Table IV, 100 mole %) it was above 5.0 fold. For the same molecule, the “ΔLag (ratio of lag time with test compound to lag time of control)” value at Aβ1-40 is on record as above 5. Further, on Aβ1-40, the inhibition at 100 mol % was determined as 100%. For the same molecule, in the test on cultured neuronal cells, the “delay of the appearance of neurotoxicity relative to control” value is given as “coincided with the delay in the time at which polymerization of Aβ began”.
As to `CC(C)C[C@H](NC(=O)[C@H](CCCCN)NC(=O)CC[C@@H](C)[C@H]1CC[C@H]2[C@@H]3[C@H](O)C[C@@H]4C[C@H](O)CC[C@]4(C)[C@H]3C[C@H](O)[C@]12C)C(=O)N[C@H](C(=O)N[C@@H](Cc1ccccc1)C(=O)N[C@@H](Cc1ccccc1)C(=O)O)C(C)C` [PPI-350, cholyl-Aβ16-20], the “Fold Increase in Lag Time” value at Aβ1-40 (Table III, 38 mole %) is given as 3.4 fold; on Aβ1-40 (Table IV, 10 mole %) it was 2.4 fold; at Aβ1-40 (Table IV, 100 mole %), above 5.0 fold. In addition, the “ΔLag (ratio of lag time with test compound to lag time of control)” value on Aβ1-40 is 1.8. The inhibition at 100 mol % on Aβ1-40 came out at 72%. Moreover, the “delay of the appearance of neurotoxicity relative to control” value in the test on cultured neuronal cells is reported as “coincided with the delay in the time at which polymerization of Aβ began”.
Consider `CC(C)C[C@H](NC(=O)CC[C@@H](C)[C@H]1CC[C@H]2[C@@H]3[C@H](O)C[C@@H]4C[C@H](O)CC[C@]4(C)[C@H]3C[C@H](O)[C@]12C)C(=O)N[C@H](C(=O)N[C@@H](Cc1ccccc1)C(=O)N[C@@H](Cc1ccccc1)C(=O)N[C@@H](C)C(=O)O)C(C)C` [PPI-368, cholyl-Aβ17-21], for which the “Fold Increase in Lag Time” value on Aβ1-40 (Table IV, 100 mole %) is above 5.0 fold. Also, at Aβ1-40, the “ΔLag (ratio of lag time with test compound to lag time of control)” value is recorded as above 5 and the inhibition at 100 mol % worked out at 100%. In addition, in the test on cultured neuronal cells, the “delay of the appearance of neurotoxicity relative to control” value was “coincided with the delay in the time at which polymerization of Aβ began”.
With “Candidate Inhibitor 224: Aβ1-40 mutant F19F20->T19T20”, the “Effect in shaken plate assay” value in the test with Aβ(1-40) peptide [1] is recorded as “Increased lag”. In the test with Aβ(1-40) peptide [2], the “Effect in Seeded Static Assay” value is “++ (A strong inhibitor of aggregation. The rate of aggregation in the presence of the inhibitor was decreased compared to the control by at least 30-50%)”.
As to “Candidate Inhibitor 233: Aβ6-20 modified with acetic acid (HDSGYEVHHQKLVFF; also: modified with acetic acid; UniProt P05067 677-691, looked up, fragment)”, the “Effect in Seeded Static Assay” value with Aβ(1-40) peptide [2] is reported as “++ (A strong inhibitor of aggregation. The rate of aggregation in the presence of the inhibitor was decreased compared to the control by at least 30-50%)”.
For N-biotinyl-βAP1-40, the “aggregation of natural β-AP1-40 (turbidity: lag time, slope, plateau)” value with natural β-AP (β-AP1-40) (modulator at 1% in natural β-AP1-40 solution) was “markedly inhibited”. The “aggregation of natural β-AP1-40 (turbidity)” value with natural β-AP (β-AP1-40) (modulator at 5% in natural β-AP1-40 solution) is reported as “similarly inhibited aggregation”. The “modulator self-aggregation (high molecular weight aggregates on gel)” value with β-AP1-40 (N-biotinyl peptide alone, no natural β-AP) was “few if any high molecular weight aggregates were observed”. Moreover, in the test with β-AP1-40 (mixture of natural β-AP1-40 and modulator), the “aggregation of mixture with natural β-AP1-40 (high molecular weight aggregates on gel)” value was “reduced amounts of the peptide mixture associated into high molecular weight aggregates”.
